Source: patent US10175256B2, “Compositions and methods utilizing lysophosphatidylcholine scaffolds” (National University Of Singapore, priority 2013, dated 2019)
Where “and” joins values, the source holds several entries; their conditions need not be identical. Equal entries are not always repeated.

Experiments:
mouse Mfsd2a [1] = biological target: T1, mouse Mfsd2a (Mus musculus, UniProt Q9DA75); test: Cell-based free fatty acid transport/uptake in Mfsd2a expressing HEK293 cells (mass spectrometry, TLC; Table 1); details: for % DHA in PC + lysoPC / % DHA in PE + lysoPE / % DHA in PI and lysoPI / % DHA in PS: Mfsd2a expressing HEK293 cells
T1 construct: expressed in transfected cells; host or cells: HEK293
T1 sequence (Q9DA75 1-534): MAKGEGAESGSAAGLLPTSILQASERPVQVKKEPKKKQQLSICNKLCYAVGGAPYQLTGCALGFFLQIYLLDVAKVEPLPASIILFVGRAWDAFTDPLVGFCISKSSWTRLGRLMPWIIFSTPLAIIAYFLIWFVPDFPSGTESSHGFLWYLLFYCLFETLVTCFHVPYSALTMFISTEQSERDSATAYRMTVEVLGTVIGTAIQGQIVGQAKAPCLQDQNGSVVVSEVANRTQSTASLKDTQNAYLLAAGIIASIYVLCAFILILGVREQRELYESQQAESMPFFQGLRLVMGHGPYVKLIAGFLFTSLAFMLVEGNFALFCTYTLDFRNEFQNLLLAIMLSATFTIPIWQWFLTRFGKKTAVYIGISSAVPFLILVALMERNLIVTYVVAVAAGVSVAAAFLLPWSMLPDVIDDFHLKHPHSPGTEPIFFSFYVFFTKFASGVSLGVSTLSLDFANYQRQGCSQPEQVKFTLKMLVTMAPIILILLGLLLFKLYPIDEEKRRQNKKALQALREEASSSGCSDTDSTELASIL
Summary of the method: (§1)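 HEK293 cells expressing mouse Mfsd2a, or mock controls, were incubated overnight with 100 μM BSA-complexed fatty acids. Lipids were extracted in hexane:isopropanol (3:2) and phospholipid species quantified by HPLC-MS/MS against spiked internal standards. For TLC, cells received 100 μM [^14C]-oleate overnight, and phospholipids and neutral lipids were resolved.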

mouse Mfsd2a [2] = test: as above; details: mock HEK293 cells
Summary of the method: as §1

Mfsd2a [3] = biological target: T2, Mfsd2a (Mus musculus, UniProt Q9DA75); test: In vivo transport of radiolabeled, fluorescent LPCs and unesterified DHA in Mfsd2a KO and wild-type mice; parameters: from tissue; host or cells: living mice; brain (blood-brain barrier endothelium), liver, heart; fetal brain; details: for brain uptake, unesterified DHA compared with LPC-DHA: wild-type brain, same amount injected i.v.
T2 sequence (Q9DA75 1-534): T1 sequence (Q9DA75 1-534)
Method: Male and female mice of age of 6-8 weeks were IV injected with 75 μl of 20 mM radiolabeled LPC-[…], 100 μl of 10 mM LPC-[^14C]DHA/BSA complex or 82 μl of 12.2 mM [^14C]DHA/BSA complex in a total volume of 150 μl of phosphate-buffered saline. At 2 hours post injection, mice were anesthetized and perfused for 5 mins with PBS containing 0.5% BSA in order to remove blood and lipid tracer bound to the brain vasculature. Tissues were harvested for lipid extraction. For lipid extraction, tissues were weighed and similar amounts of tissues were homogenized in chloroform/methanol. Lipids from the organic phase were mixed with scintillant and scintillation counted. Similar experiments were also performed with an injection of 300 μg NBD-LPC/BSA or 300 μg TopFluor-LPC/BSA complex per mouse. In this experiment, mice were perfused for 5 mins with PBS followed 15 mins perfusion with 4% paraformaldehyde (PFA) for tissue fixation. Brain sections of WT and KO with a thickness of 40 μm were prepared and scanned using green fluorescence mode in Typhoon FLA 9000 scanner (Agilent). NBD-LPC accumulation was expressed as fluorescence of each section per its area. Dietary DHA transport from mother to fetus was also measured using [^14C]DHA/BSA complex. Pregnant females at e18.5 was gavaged with bolus of [^14C]DHA/BSA complex (200 μl of 10 mM [^14C]DHA/BSA/mouse). Brain of fetuses were collected 20 hours post-gavage and weighed. Lipid extraction and radioactivity were performed as described above.

Mfsd2a [4] = biological target: T2, Mfsd2a; test: Dietary DHA transport from mother to fetus (fetal brain uptake); type: in vivo, mice; parameters: from tissue; host or cells: living mice; brain (blood-brain barrier endothelium), liver, heart; fetal brain
Method: FIG. 21. […] Heterozygous female mice were gavaged with 100 ul DHA oil (containing 26% DHA triglyceride and 6% EPA, total omega-3 is 35%) every 2 days for 2 weeks prior to conception in crosses with KO males. […] The rationale for using HET and KO intercrosses was to increase the yield of KO mice in this rescue study. During gestation, pregnant mice were continued on gavages of DHA every 2 days. Gavages of mothers continued during breastfeeding and pups were weaned onto normal diet at 3 weeks of age and gavaged every 2 days with DHA for 8 weeks. a, brain weight of adult WT (n=4) and KO (n=4) mice aged 8 weeks after treatment with dietary DHA oil. […] To test this possibility, pregnant het mothers intercrossed to KO fathers at e17.5-e19.5, were gavaged with [^14C]DHA and uptake into fetal brains were quantified. […] Data are expressed as mean±SEM. *P<0.05. ***P<0.001.
Male and female mice of age of 6-8 weeks were IV injected with 75 μl of 20 mM radiolabeled LPC-[…], 100 μl of 10 mM LPC-[^14C]DHA/BSA complex or 82 μl of 12.2 mM [^14C]DHA/BSA complex in a total volume of 150 μl of phosphate-buffered saline. […] Lipids from the organic phase were mixed with scintillant and scintillation counted. […] Brain sections of WT and KO with a thickness of 40 μm were prepared and scanned using green fluorescence mode in Typhoon FLA 9000 scanner (Agilent). […]

mouse Mfsd2a [5] = biological target: T1, mouse Mfsd2a; test: TLC analysis of phospholipids (bio-incorporation of LPC into PC); type: cell-based; details: HEK293 cells expressing Mfsd2a, radiolabeled LPC, TLC
Method: HEK293 cells overexpressing with pcDNA3.1Mfsd2a (WT), pcDNA3.1Mfsd2aD92A (D92A), pcDNA3.1Mfsd2aD96A, or pcDNA3.1 (mock) plasmids or human Mfsd2a (in Sport6 plasmid) were washed once with serum-free DMEM medium before incubation with 50 μM radiolabeled LPC [^14C]oleate, LPC [^14C]DHA or with 50 μM TopFluor-LPC and NBD-LPC. Lipids were extracted twice with HIP buffer for 30 mins. Lipids were dried with nitrogen stream and reconstituted in chloroform and spotted on TLC plates (Milipore). Solvent for phospholipid separation was chloroform/methanol/ammonia solution (25%) (50:25:6, per volume). TLC plates of radiolabeled phospholipids were dried for 30 mins and exposed overnight to Phosphorscreens and scanned with Typhoon FLA 9000 scanner (Agilent). TLC plates of fluorescent phospholipids were scanned with Typhoon FLA 9000 scanner and quantified using Imagequant software.

mouse Mfsd2a [6] = biological target: T1, mouse Mfsd2a; test: In vitro transport (uptake) of radiolabeled and fluorescent LPCs in HEK293 cells overexpressing Mfsd2a; type: cell-based
Method: Uptake assays of radiolabeled LPCs or fluorescent LPCs were tested using HEK293 cells overexpressing Mfsd2a and mutants constructs. Briefly, HEK293 cells at 90-95% confluency were transfected using LIPOFECTAMINE 2000 (Invitrogen) with pcDNA3.1Mfsd2a (WT), pcDNA3.1Mfsd2aD92A (D92A), pcDNA3.1Mfsd2aD96A (D96A), or pcDNA3.1 (mock) plasmids. Uptake assays were performed after 24 hours of transfections. Prior to ligand incubation, HEK293 transfected cells were washed with serum-free DMEM before assays. For concentration and time dependent assays, radiolabeled LPCs were diluted in pre-warmed DMEM media. For sodium dependent assay, radiolabeled LPCs were diluted in transport buffer (5 mM KCl, 10 mM Hepes, pH 7.4) with 150 mM NaCl or 150 mM choline chloride. For sodium concentration dependent assays, any reductions in the concentration of NaCl were replaced by choline chloride in order to maintain a constant cation molarity of 150 mM. All assays were performed in 12 well-plates with triplicates and at 37° C.

[7] = 100 uM Alpha-linolenic fatty acid/BSA overnight, replicate columns
[8] = 100 uM Arachidonic fatty acid/BSA overnight
[9] = 100 uM Eicosapentaenoic fatty acid/BSA overnight
[10] = 100 uM Docosahexaenoic acid/BSA overnight
[11] = 100 uM Eicosapentaenoic acid/BSA overnight
[12] = 100 uM Linoleic fatty acid/BSA overnight
[13] = 100 uM Oleic fatty acid/BSA overnight

## CCC=CCC=CCC=CCC=CCC=CCC=CCC[14C](=O)O [[^14C]DHA, [1-^14C]docosahexaenoic acid, reference compound]
Mouse Mfsd2a [1]; HEK293 cells, 100 μM fatty acid/BSA overnight
  transport of unesterified fatty acid by Mfsd2a: did not transport
Mouse Mfsd2a [1]; [7]
  % DHA in PC + lysoPC: 0.2353% and 0.2194% and 0.2422% and 0.2191%
  % DHA in PE + lysoPE: 13.49% and 15.19% and 13.82% and 14.8475%
  % DHA in PI and lysoPI: 0.05995% and 0.06331% and 0.07073% and 0.06627%
  % DHA in PS: 0.1602% and 0.1425% and 0.1723% and 0.1454%
Mouse Mfsd2a [1]; [8]
  % DHA in PC + lysoPC: 0.08166% and 0.07964% and 0.09753% and 0.09194%
  % DHA in PE + lysoPE: 7.284% and 8.765% and 7.721% and 8.735%
  % DHA in PI and lysoPI: 0.01388% and 0.01389% and 0.0161% and 0.01507%
Mouse Mfsd2a [1]; 100 uM Arachidonic fatty acid/BSA overnight, replicate columns
  % DHA in PS: 0.1231% and 0.1085% and 0.1181% and 0.1151%
Mouse Mfsd2a [1]; [9]
  % DHA in PE + lysoPE: 18.3299% and 16.89% and 16.6% and 16.53%
  % DHA in PI and lysoPI: 0.048% and 0.05677% and 0.0498% and 0.05152%
  % DHA in PS: 0.2062% and 0.2182% and 0.1861% and 0.2178%
Mouse Mfsd2a [1]; 100 uM Linoleic fatty acid/BSA overnight, replicate columns
  % DHA in PC + lysoPC: 0.06735% and 0.06556% and 0.06667% and 0.06486%
Mouse Mfsd2a [1]; [10]
  % DHA in PC + lysoPC: 0.4167% and 0.3839% and 0.3923% and 0.3416%
  % DHA in PE + lysoPE: 26.88% and 25.05% and 25.61% and 24.93%
  % DHA in PI and lysoPI: 0.2363% and 0.1967% and 0.2348% and 0.1831%
  % DHA in PS: 0.4937% and 0.5293% and 0.485% and 0.4533%
Mouse Mfsd2a [1]; [11]
  % DHA in PC + lysoPC: 0.1577% and 0.1414% and 0.143% and 0.141%
Mouse Mfsd2a [1]; [12]
  % DHA in PE + lysoPE: 10.0396% and 9.979% and 10.14% and 10.29%
  % DHA in PI and lysoPI: 0.01746% and 0.01513% and 0.01522% and 0.01521%
  % DHA in PS: 0.1229% and 0.1239% and 0.1343% and 0.1145%
Mouse Mfsd2a [1]; [13]
  % DHA in PC + lysoPC: 0.04304% and 0.04054% and 0.04274% and 0.04139%
  % DHA in PE + lysoPE: 10.39% and 10.24% and 9.206% and 11.33%
  % DHA in PI and lysoPI: 0.01405% and 0.01452% and 0.01424% and 0.01275%
Mouse Mfsd2a [2]; [8]
  % DHA in PC + lysoPC: 0.09113% and 0.09288% and 0.09495%
  % DHA in PE + lysoPE: 8.696% and 8.987% and 7.919%
  % DHA in PI and lysoPI: 0.01273% and 0.01321% and 0.01121%
Mouse Mfsd2a [2]; [9]
  % DHA in PE + lysoPE: 15.99% and 18.52% and 17.73%
  % DHA in PI and lysoPI: 0.03815% and 0.04977% and 0.04803%
  % DHA in PS: 0.1841% and 0.2258% and 0.1957%
Mouse Mfsd2a [2]; [10]
  % DHA in PC + lysoPC: 0.4237% and 0.3234% and 0.432%
  % DHA in PE + lysoPE: 26.43% and 26.89% and 27.48%
  % DHA in PI and lysoPI: 0.204% and 0.2547% and 0.2244%
  % DHA in PS: 0.5491% and 0.6402% and 0.653%
Mouse Mfsd2a [2]; [11]
  % DHA in PC + lysoPC: 0.1385% and 0.1469% and 0.1528%
Mouse Mfsd2a [2]; [12]
  % DHA in PE + lysoPE: 9.697% and 10.5% and 10.2%
  % DHA in PI and lysoPI: 0.01565% and 0.01716% and 0.01581%
  % DHA in PS: 0.1596% and 0.1455% and 0.1427%
Mouse Mfsd2a [2]; [13]
  % DHA in PC + lysoPC: 0.04427% and 0.04402% and 0.04911%
  % DHA in PE + lysoPE: 10.41% and 11.83% and 10.1%
  % DHA in PI and lysoPI: 0.01286% and 0.01294% and 0.01231%
Mfsd2a [3]; i.v. injection, 2 hrs post-injection, radiolabel
  brain uptake in KO mice relative to wild-type: not reduced
Mfsd2a [3]; 2 hrs
  brain uptake, unesterified DHA compared with LPC-DHA: significantly lower
Mfsd2a [4]; e18.5, maternal gavage
  brain uptake by KO embryos compared to wild-type embryos: dramatically reduced
Mfsd2a [4]; pregnant het mothers gavaged at e17.5-e19.5
  reduction in fetal brain uptake, KO relative to het: 80%

## CCC=CCC=CCC=CCC=CCC=CCC=CCCC(=O)OC[C@@H](O)COP(=O)([O-])OCC[N+](C)(C)C [LPC-[^14C]DHA, 1-docosahexaenoyl 2-lysophosphocholine]
Mfsd2a [3]; i.v. injection, 2 hrs post-injection
  reduction in brain uptake in Mfsd2a KO mice compared with wild-type: more than 90%
Mfsd2a [3]; i.v. injection, liver and heart, 2 hrs
  uptake in peripheral tissues of KO mice compared with wild-type: not decreased
Mfsd2a [3]; 2 hrs
  brain uptake, unesterified DHA compared with LPC-DHA: far greater
Mouse Mfsd2a [5]
  conversion of transported LPCs into PCs: rapid conversion of transported LPCs into PCs
Mouse Mfsd2a [6]; HEK293 cells expressing Mfsd2a
  comparison of Mfsd2a-mediated uptake (capacity to transport): highest capacity
Mouse Mfsd2a [6]; HEK293 cells, wild-type Mfsd2a vs mock, LPC/BSA, 30 mins
  uptake of radiolabeled LPC by cells expressing Mfsd2a relative to control cells: enhanced concentration-dependent uptake
